≈ marks a conversion by molar mass, not a printed value. Blank lines part the entries; values can stand above or below the molecule they belong to.
What was measured:
Assay in all cases: ≥ marks a high value that may be exact or a test limit, other limits are often not marked, values filed in µg/mL are converted to µM
[1] = test system: Escherichia coli DH5alpha
[2] = test system: Staphylococcus xylosus
[3] = test system: Legionella pneumophila Lens
[4] = test system: Staphylococcus aureus USA 100
[5] = test system: Candida albicans NCPF 1467
[6] = test system: Escherichia coli NCTC 10418
[7] = test system: Staphylococcus aureus NCTC 10788
[8] = test system: Escherichia coli MG1655
[9] = test system: Klebsiella pneumoniae ATCC 700603
[10] = test system: Pseudomonas aeruginosa ATCC 10145
[11] = test system: Staphylococcus aureus ATCC 25923
[12] = test system: Candida albicans ATCC 90028
[13] = test system: Escherichia coli ATCC 25922
[14] = test system: Escherichia coli KCTC 1682
[15] = test system: Pseudomonas aeruginosa ATCC 9027
[16] = test system: Pseudomonas aeruginosa KCTC 1637
[17] = test system: Staphylococcus aureus KCTC 1621
[18] = test system: Staphylococcus aureus USA 300
[19] = test system: Staphylococcus epidermidis KCTC 1917
[20] = test system: Micrococcus luteus ATCC 4698

Structure (SMILES): CC[C@H](C)[C@H](NC(=O)[C@H](CC(C)C)NC(=O)[C@H](CC(=O)O)NC(=O)[C@@H](NC(=O)[C@@H](NC(=O)[C@H](Cc1ccccc1)NC(=O)[C@H](CCC(N)=O)NC(=O)[C@@H](N)CCSC)[C@@H](C)CC)[C@@H](C)O)C(=O)NCC(=O)N[C@@H](CCCCN)C(=O)N[C@@H](C)C(=O)N[C@H](C(=O)N[C@@H](CC(=O)O)C(=O)N[C@@H](Cc1ccccc1)C(=O)N[C@@H](Cc1ccccc1)C(=O)N[C@@H](CCCCN)C(=O)NCC(=O)N[C@@H](CC(C)C)C(=O)N[C@@H](Cc1ccccc1)C(=O)NCC(=O)N[C@@H](CC(N)=O)C(=O)N[C@@H](CCCCN)C(=O)O)C(C)C [MQFITDLIGKAVDFFKGLFGNK]
MIC [3]: 3.7 µM (≈ 9.21 µg/mL)

Structure (SMILES): NCCCC[C@H](NC(=O)[C@H](Cc1c[nH]c2ccccc12)NC(=O)[C@H](CCCCN)NC(=O)[C@@H](N)Cc1c[nH]c2ccccc12)C(N)=O [WKWK]
MIC [4]: ≥ 100 µM

Structure (SMILES): CC[C@H](C)[C@H](NC(=O)CN)C(=O)NCC(=O)NCC(=O)N[C@@H](C)C(=O)N[C@@H](CC(C)C)C(=O)N[C@@H](CC(C)C)C(=O)N[C@@H](CC(N)=O)C(=O)N[C@H](C(=O)NCC(=O)N[C@@H](CCCCN)C(=O)N[C@H](C(=O)N[C@@H](C)C(=O)N[C@@H](CC(C)C)C(=O)N[C@@H](CCCCN)C(=O)NCC(=O)N[C@@H](CC(C)C)C(=O)N[C@@H](C)C(=O)N[C@@H](CCCCN)C(=O)NCC(=O)N[C@@H](CC(C)C)C(=O)N[C@@H](C)C(=O)N[C@@H](CCC(=O)O)C(=O)N[C@@H](Cc1cnc[nH]1)C(=O)N[C@@H](Cc1ccccc1)C(=O)N[C@@H](C)C(=O)N[C@@H](CC(N)=O)C(N)=O)C(C)C)C(C)C [GIGGALLNVGKVALKGLAKGLAEHFAN]
MIC [5]: 12.2 µM (≈ 32 µg/mL)
MIC [6]: 12.2 µM (≈ 32 µg/mL)
MIC [7]: 3.05 µM (≈ 8 µg/mL)

Structure (SMILES): CC(C)C[C@H](NC(=O)[C@H](Cc1ccc(O)cc1)NC(=O)[C@H](Cc1cnc[nH]1)NC(=O)[C@H](CCCCN)NC(=O)[C@H](CC(C)C)NC(=O)[C@H](C)NC(=O)[C@H](CC(C)C)NC(=O)[C@H](CCCCN)NC(=O)CNC(=O)[C@@H](NC(=O)[C@@H](NC(=O)[C@H](CCCCN)NC(=O)[C@@H](NC(=O)[C@H](CCC(=O)O)NC(=O)[C@H](C)NC(=O)[C@H](CCCCN)NC(=O)[C@H](CCCCN)NC(=O)[C@H](CC(C)C)NC(=O)[C@H](CC(C)C)NC(=O)[C@@H](NC(=O)[C@H](CCCCN)NC(=O)[C@H](Cc1c[nH]c2ccccc12)NC(=O)CN)[C@@H](C)O)C(C)C)[C@@H](C)O)C(C)C)C(=O)O [GWKTLLKKAEVKTVGKLALKHYL]
MIC [8]: 9.3 µM (≈ 24.4 µg/mL)
MIC [9]: > 9.3 µM
MIC [10]: 0.29 µM (≈ 0.761 µg/mL)
MIC [11]: 2.32 µM (≈ 6.09 µg/mL)

Structure (SMILES): NC(=O)[C@H](CCCN=C(N)N)NC(=O)[C@H](CC(=O)O)NC(=O)[C@H](CCCN=C(N)N)NC(=O)[C@@H](N)CC(=O)O [DRDR]
MIC [4]: ≥ 100 µM

Structure (SMILES): NC(=O)[C@H](CCCN=C(N)N)NC(=O)[C@H](Cc1c[nH]c2ccccc12)NC(=O)[C@H](CCCN=C(N)N)NC(=O)[C@H](Cc1c[nH]c2ccccc12)NC(=O)[C@H](CCCN=C(N)N)NC(=O)[C@@H](N)Cc1c[nH]c2ccccc12 [WRWRWR]
MIC [12]: ≥ 100 µM
MIC [13]: 7.18 µM (≈ 7.49 µg/mL)
MIC [14]: 3.83 µM (≈ 4 µg/mL)
MIC [15]: > 100 µM
MIC [16]: 15.3 µM (≈ 16 µg/mL)
MIC [11]: 7.18 µM (≈ 7.49 µg/mL)
MIC [17]: 7.65 µM (≈ 7.99 µg/mL)
MIC [4]: 25 µM (≈ 26.1 µg/mL)
MIC [18]: 25 µM (≈ 26.1 µg/mL)
MIC [19]: 7.65 µM (≈ 7.99 µg/mL)

Structure (SMILES): CC[C@H](C)[C@H](NC(=O)[C@@H](N)CC(C)C)C(=O)N[C@@H](CCCCN)C(=O)N[C@@H](CCCN=C(N)N)C(=O)N[C@@H](CCCCN)C(=O)O [LIKRK]
MIC [1]: ≥ 64 µM
MIC [2]: ≥ 64 µM

Structure (SMILES): CC(C)C[C@@H]1NC(=O)[C@H](CCCN=C(N)N)NC(=O)[C@H](CCCCN)NC(=O)[C@H](Cc2c[nH]c3ccccc23)NC(=O)CNC(=O)CNC(=O)[C@@H](N)CSSC[C@@H](C(=O)O)NC(=O)[C@H](CCCN=C(N)N)NC1=O [CGGWKRLRC]
MIC [20]: 13 µM (≈ 14 µg/mL)

Structure (SMILES): NC(=O)[C@H](CCCN=C(N)N)NC(=O)[C@H](Cc1ccccc1)NC(=O)[C@H](CCCN=C(N)N)NC(=O)[C@@H](N)Cc1ccccc1 [FRFR]
MIC [4]: ≥ 100 µM

Structure (SMILES): CC[C@H](C)[C@H](NC(=O)[C@H](CO)NC(=O)[C@H](CC(N)=O)NC(=O)[C@@H](NC(=O)[C@H](CC(C)C)NC(=O)[C@H](C)NC(=O)[C@H](CO)NC(=O)[C@H](C)NC(=O)[C@H](Cc1ccccc1)NC(=O)[C@H](CC(=O)O)NC(=O)[C@H](CCCCN)NC(=O)[C@H](C)NC(=O)CNC(=O)[C@H](CCCCN)NC(=O)[C@H](CCCCN)NC(=O)[C@H](CC(C)C)NC(=O)[C@H](CCCCN)NC(=O)[C@H](CCC(=O)O)NC(=O)[C@H](CC(C)C)NC(=O)[C@H](Cc1ccccc1)NC(=O)CN)C(C)C)C(=O)N[C@@H](CCCCN)C(=O)NCC(=O)N[C@H](C(=O)O)[C@@H](C)O [GFLEKLKKGAKDFASALVNSIKGT]
MIC [5]: ≥ 101 µM
MIC [6]: ≥ 50.7 µM
MIC [7]: ≥ 203 µM

The remaining lines, values ahead:

MIC [1]: ≥ 64 µM
MIC [2]: 8 µM (≈ 10.3 µg/mL)
Structure (SMILES): CC(C)[C@H](NC(=O)[C@H](CCCCN)NC(=O)[C@H](CCCCN)NC(=O)[C@@H](N)CCCCN)C(=O)N[C@H](C(=O)N[C@H](C(=O)N[C@H](C(=O)N[C@H](C(=O)N[C@@H](CCCCN)C(=O)N[C@@H](CCCCN)C(=O)N[C@@H](CCCCN)C(=O)O)C(C)C)C(C)C)C(C)C)C(C)C [KKKVVVVVKKK]

MIC [3]: 1.27 µM (≈ 3.12 µg/mL)
Structure (SMILES): CC[C@H](C)[C@H](NC(=O)[C@H](CC(C)C)NC(=O)CNC(=O)[C@H](CCCCN)NC(=O)[C@@H](NC(=O)[C@@H](NC(=O)[C@H](CCC(=O)O)NC(=O)[C@@H](NC(=O)[C@@H](NC(=O)[C@H](CCCCN)NC(=O)[C@H](C)NC(=O)[C@@H](NC(=O)[C@@H](NC(=O)[C@H](CC(=O)O)NC(=O)[C@H](C)NC(=O)[C@@H](N)CCSC)C(C)C)[C@@H](C)CC)[C@@H](C)CC)C(C)C)[C@@H](C)CC)C(C)C)C(=O)N[C@@H](CC(=O)O)C(=O)N[C@@H](CCC(N)=O)C(=O)N[C@@H](Cc1ccccc1)C(=O)N[C@H](C(=O)N[C@@H](CCC(N)=O)C(=O)N[C@@H](CCCCN)C(=O)O)[C@@H](C)O [MADVIAKIVEIVKGLIDQFTQK]

MIC [1]: 8 µM (≈ 14.7 µg/mL)
MIC [2]: 0.5 µM (≈ 0.917 µg/mL)
Structure (SMILES): CC[C@H](C)[C@H](NC(=O)[C@H](CC(C)C)NC(=O)[C@@H](NC(=O)[C@H](CC(C)C)NC(=O)[C@@H](NC(=O)[C@H](CC(C)C)NC(=O)[C@H](CCCCN)NC(=O)[C@H](CCCN=C(N)N)NC(=O)[C@H](CCCCN)NC(=O)[C@@H](N)CCCN=C(N)N)[C@@H](C)CC)[C@@H](C)CC)C(=O)N[C@@H](CCCCN)C(=O)N[C@@H](CCCN=C(N)N)C(=O)N[C@@H](CCCCN)C(=O)N[C@@H](CCCN=C(N)N)C(=O)O [RKRKLILILIKRKR]

MIC [5]: 1.81 µM (≈ 4 µg/mL)
MIC [6]: 7.23 µM (≈ 16 µg/mL)
MIC [7]: 1.81 µM (≈ 4 µg/mL)
Structure (SMILES): CC[C@H](C)[C@H](NC(=O)[C@H](C)NC(=O)[C@H](CCCCN)NC(=O)[C@@H](NC(=O)[C@H](CC(C)C)NC(=O)CNC(=O)[C@H](CCCCN)NC(=O)[C@@H](NC(=O)[C@@H](NC(=O)[C@H](CCCCN)NC(=O)[C@@H]1CCCN1C(=O)[C@@H](NC(=O)[C@H](CC(C)C)NC(=O)[C@H](CCCCN)NC(=O)[C@H](Cc1ccccc1)NC(=O)[C@H](CC(C)C)NC(=O)[C@@H](N)Cc1ccccc1)[C@@H](C)CC)C(C)C)[C@@H](C)CC)C(C)C)C(=O)N[C@@H](CCCN=C(N)N)C(=O)N[C@@H](CCCCN)C(N)=O [FLFKLIPKVIKGLVKAIRK]

MIC [1]: 8 µM (≈ 10.8 µg/mL)
MIC [2]: 0.5 µM (≈ 0.676 µg/mL)
Structure (SMILES): CC[C@H](C)[C@H](NC(=O)[C@H](CCCCN)NC(=O)[C@H](CCCCN)NC(=O)[C@@H](N)CCCCN)C(=O)N[C@H](C(=O)N[C@H](C(=O)N[C@H](C(=O)N[C@H](C(=O)N[C@@H](CCCCN)C(=O)N[C@@H](CCCCN)C(=O)N[C@@H](CCCCN)C(=O)O)[C@@H](C)CC)[C@@H](C)CC)[C@@H](C)CC)[C@@H](C)CC [KKKIIIIIKKK]

Reference: DBAASP
